Experimental data published in paper PMC11955804, “Histidine-rich enantiomeric peptide coacervates enhance antigen sequestration and presentation to T cells” (Chemical Science, 2025).

Experiments:
[1] = Rheology testing of coacervate suspensions; assay type: physicochemical
Method: NaCl) was used to study ionic strength effects. The absorbance was further converted to turbidity using methods previously described 1 and data was plotted as relative turbidity.
Optical microscopy and dynamic light scattering (DLS)
Droplets were visualized in 1×PBS using NCI Leica DMC4500 microscope in reflection mode with differential interference contrast. Images were captured with a DMC4500 camera under the control of Leica LAS X software (version 3.4.2). Coacervate size was measured using 1 mM peptide solutions (1×PBS, pH 7.4) on a ZEN 3600 Zetasizer (Malvern Instruments, UK) using DLS-Zen 0040 specialized cuvettes. The results were reported as the means of three measurements, with 14 scans for each measurement.
Transmission electron microscopy (TEM)
Peptide solutions prepared for TEM were applied directly to 200-mesh, carbon-coated copper grids for 2 min and stained with 1% uranyl formate for 1 min. Excess stain was blotted using filter paper. Brightfield images were taken with a JEOL JEM-1400 transmission electron microscope with a NANOSPRT15 camera at an accelerating voltage of 120 kV.
Viscosity of the peptide solutions (1 mM or 2 mM) was tested using an ARES 2000ex rotational rheometer (TA Instruments, New Castle, DE). Peptides were freshly solubilized, and 170 µL of each was pipetted onto the rheometer stage. A 20-mm parallel plate geometry was lowered to a gap of 200 µm. Storage modulus (G′) and loss modulus (G″) were measured as a function of angular frequency (1–10 rad/s) with 1% strain. Viscosity was measured as a function […]
of shear rate (1–100 s-1). Separately, viscosity was measured using a Hagen-Poiseuille viscometer (RheoSense microVISC, San Ramon, CA) at a shear rate of 2500 s-1 to confirm viscosity differences at two different concentrations (1 mM and 2 mM).
Computational simulations
All simulations were performed using GROMACS 2023 2,3 and the CHARMM36m 4 force field. The necessary force field parameters and input files were generated using AlphaFold 5 predicted structures coupled with CHARMM-GUI 6. A single peptide chain was solvated in a 5-nm cubic box. […]

hiPSC-CMs = assay: Confocal microscopy of cellular uptake in hiPSC-CMs; assay type: cell-based, human; conditions: for interaction with the cell membrane of hiPSC-CMs: confocal microscopy; for cellular uptake / localization in hiPSC-CMs: eGFP loaded coacervates (100 nM eGFP), 30 min, 37 °C, confocal
Method: Stem cell-derived cardiomyocytes and confocal microscopy
Wild type hiPSCs (WT iPSC 11) were received from the Genome Engineering and Stem Cell Center at Washington University School of Medicine. hiPSCs were cultured in mTeSR Plus […]
medium ([…] Technologies, USA) on 6-well plates coated with Matrigel (1:100, Corning) and grown at 37 °C with 5% CO2. Cells were grown to 80–90% confluency and then passaged as clusters using Versene (Thermo Scientific, USA) into 6-well plates for hiPSC maintenance and […]
into 24-well plates for hiPSC differentiation. Once hiPSCs reached 90% confluence, they were differentiated into cardiomyocytes using small-molecule manipulation of Wnt signaling 10. Non-cardiomyocytes were removed via lactate purification on days 20 and 22 before replating singularized hiPSC cardiomyocytes (hiPSC-CMs) at 40,000 cells per 35-mm glass-bottom dish. hiPSC-CMs were treated with enantiomeric leucine or valine coacervates loaded with eGFP protein (Novus Biologicals, Catalog number: NBP2-34923; 50 μL, final concentration of 100 nM eGFP) for 30 min at 37°C. Samples were fixed with 2% paraformaldehyde (PFA) and three PBS washes (10 min at RT). The cell membrane was stained with wheat germ agglutinin (WGA; Fisher Scientific, Catalog number: W32466; 0.25 μL/mL) conjugated to Alexa Fluor 647 (10 min at RT), followed by three PBS washes (5 minutes at RT). Confocal micrographs of singular hiPSC-CMs were acquired using a Leica Sp8 Lightning single-photon confocal microscope […]
numerical aperture oil immersion objective, two HyD GaAsP detectors, and two high-sensitivity photomultiplier tube detectors. Images were collected as z-stacks (presented as top or bottom view, and single plane) and by Nyquist sampling (or greater) as previously described 11.
All animal experiments were conducted under approved protocols by the Institutional Animal Care and Use Committee (IACUC) at Washington University in St Louis. Femoral and tibial bone marrow from C57BL/6 mice were collected and RBCs lysed using ACK buffer. The cells were plated at 5×10^6 cells per petri dish (150 mm) and differentiated for 7–9 days in complete RPMI-1640 medium (containing 10% heat-inactivated FBS), 55 µM β-mercaptoethanol, 1 mM sodium pyruvate, 10 mM HEPES, 1× MEM non-essential amino acids, 20 ng/mL GM-CSF, 10

[2] = angular frequency 1–10 rad/s, 1% strain

| Substance | fold increase in G′ compared to valine droplets [1, 2] | viscosity of coacervate suspension ([1]; parallel plate rheology at fixed shear rate, 1 or 2 mM peptide, compared to valine or proline variants) | interaction with the cell membrane of hiPSC-CMs (hiPSC-CMs) | cellular uptake / localization in hiPSC-CMs (hiPSC-CMs) | fold increase in G′ compared to proline [1, 2] |
| --- | --- | --- | --- | --- | --- |
| (GHGLY)4 [GL 20] | ~3 fold | greater viscosity | interacted with and traversed the cell membrane | confirmed their localization within the cells | – |
| (GHGVY)4 [GV 20] | – | – | this behavior was not observed | confirmed their localization within the cells | 2 fold |
